We go through 20 compounds from US11851426B2, “Bicyclic amines as CDK2 inhibitors” (Incyte Corporation, priority 2019, dated 2023).

pIC50: −log10 of the molar value. Bounds are passed on as bounds.

This assay addresses CDK2/Cyclin E1 (Homo sapiens (Human), UniProt P24941). As to the kind of experiment: CDK2/Cyclin E1 HTRF enzyme activity assay. In kind it is biochemical. The settings on record: 1 mM ATP; CDK2/Cyclin E1 0.25 nM; 60 minutes at room temperature. Summed up: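 Full-length GST-CDK2 co-expressed with FLAG-Cyclin E1 (baculovirus), 0.25 nM, reacted with 50 nM ULight-4E-BP1 (Thr37/46) peptide at 50 μM or 1 mM ATP in HEPES pH 7.5 buffer, 60 min, room temperature. EDTA plus Eu-anti-phospho-4E-BP1 antibody stopped the reaction; HTRF read after 1 h; IC50 from three- or four-parameter fits.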
For orientation: TR-FRET usually uses a lanthanide donor and a delayed reading to cut background.
For the compound `C[C@@H]1CN(S(C)(=O)=O)CC[C@@H]1Nc1nc2cnc(-c3cn[nH]c3)c(OC3CCC3)n2n1` [Example 100, 5-Cyclobutoxy-N-((3R,4S)-3-methyl-1-(methylsulfonyl)piperidin-4-yl)-6-(1H-pyrazol-4-yl)-[1,2,4]triazolo[1,5-a]pyrazin-2-amine], the pIC50 (usually the negative decadic logarithm of the IC50, by convention in mol/L) was at least 7.70. `CC(C)COc1c(-c2cn[nH]c2)ncc2nc(N[C@H]3CCN(S(C)(=O)=O)C[C@H]3C)nn12` [Example 101, 5-Isobutoxy-N-((3R,4S)-3-methyl-1-(methylsulfonyl)piperidin-4-yl)-6-(1H-pyrazol-4-yl)-[1,2,4]triazolo[1,5-a]pyrazin-2-amine]: the pIC50 was at least 7.70. The value for `CCCOc1c(-c2cn[nH]c2)ncc2nc(N[C@H]3CCN(S(C)(=O)=O)C[C@H]3C)nn12` [Example 102, N-((3R,4S)-3-Methyl-1-(methylsulfonyl)piperidin-4-yl)-5-propoxy-6-(1H-pyrazol-4-yl)-[1,2,4]triazolo[1,5-a]pyrazin-2-amine] was at least 7.70; that for `CCCCOc1c(-c2cn[nH]c2)ncc2nc(N[C@H]3CCN(S(C)(=O)=O)C[C@H]3C)nn12` [Example 103, 5-Butoxy-N-((3R,4S)-3-methyl-1-(methylsulfonyl)piperidin-4-yl)-6-(1H-pyrazol-4-yl)-[1,2,4]triazolo[1,5-a]pyrazin-2-amine] was at least 7.70. The same measure for `CC(C)COc1c(-c2cn[nH]c2)ncc2nc(NC3CCN(S(C)(=O)=O)CC3)nn12` [Example 104, 5-Isobutoxy-N-(1-(methylsulfonyl)piperidin-4-yl)-6-(1H-pyrazol-4-yl)-[1,2,4]triazolo[1,5-a]pyrazin-2-amine]: at least 7.70; for `CCCOc1c(-c2cn[nH]c2)ncc2nc(NC3CCN(S(C)(=O)=O)CC3)nn12` [Example 105, N-(1-(Methylsulfonyl)piperidin-4-yl)-5-propoxy-6-(1H-pyrazol-4-yl)-[1,2,4]triazolo[1,5-a]pyrazin-2-amine]: at least 7.70; for `CCCCOc1c(-c2cn[nH]c2)ncc2nc(NC3CCN(S(C)(=O)=O)CC3)nn12` [Example 106, 5-Butoxy-N-(1-(methylsulfonyl)piperidin-4-yl)-6-(1H-pyrazol-4-yl)-[1,2,4]triazolo[1,5-a]pyrazin-2-amine]: at least 7.70. For the compound `CC1CC(Oc2c(-c3cn[nH]c3)ncc3nc(N[C@H]4CCN(S(C)(=O)=O)C[C@H]4C)nn23)C1` (stereo partly drawn) [Example 107, N-((3R,4S)-3-Methyl-1-(methylsulfonyl)piperidin-4-yl)-5-(3-methylcyclobutoxy)-6-(1H-pyrazol-4-yl)-[1,2,4]triazolo[1,5-a]pyrazin-2-amine], the pIC50 is at least 7.70. As for `C[C@@H]1CN(S(C)(=O)=O)CC[C@@H]1Nc1nc2cnc(-c3cn[nH]c3)c(OC3CC(C(F)F)C3)n2n1` (stereo partly drawn) [Example 108, 5-(3-(Difluoromethyl)cyclobutoxy)-N-((3R,4S)-3-methyl-1-(methylsulfonyl)piperidin-4-yl)-6-(1H-pyrazol-4-yl)-[1,2,4]triazolo[1,5-a]pyrazin-2-amine], the pIC50 is at least 7.70. In turn, `C[C@@H]1CN(S(C)(=O)=O)CC[C@@H]1Nc1nc2cnc(-c3cn[nH]c3)c(OC3CC3)n2n1` [Example 109, 5-Cyclopropoxy-N-((3R,4S)-3-methyl-1-(methylsulfonyl)piperidin-4-yl)-6-(1H-pyrazol-4-yl)-[1,2,4]triazolo[1,5-a]pyrazin-2-amine] had a pIC50 of at least 7.70. Compound `C[C@@H]1CN(S(C)(=O)=O)CC[C@@H]1Nc1nc2cnc(-c3cn[nH]c3)c(OC3CCC(F)(F)CC3)n2n1` [Example 110, 5-((4,4-Difluorocyclohexyl)oxy)-N-((3R,4S)-3-methyl-1-(methylsulfonyl)piperidin-4-yl)-6-(1H-pyrazol-4-yl)-[1,2,4]triazolo[1,5-a]pyrazin-2-amine] gave a pIC50 of at least 7.70. Regarding `CC1COCCC1Oc1c(-c2cn[nH]c2)ncc2nc(N[C@H]3CCN(S(C)(=O)=O)C[C@H]3C)nn12` (stereo partly drawn) [Example 111, N-((3R,4S)-3-Methyl-1-(methylsulfonyl)piperidin-4-yl)-5-((3-methyltetrahydro-2H-pyran-4-yl)oxy)-6-(1H-pyrazol-4-yl)-[1,2,4]triazolo[1,5-a]pyrazin-2-amine], the pIC50 was at least 7.70. The same measure for `CC1CC(Oc2c(-c3cn[nH]c3)ncc3nc(N[C@H]4CCN(S(C)(=O)=O)C[C@H]4C)nn23)CCO1` (stereo partly drawn) [Example 112, N-((3R,4S)-3-Methyl-1-(methylsulfonyl)piperidin-4-yl)-5-((2-methyltetrahydro-2H-pyran-4-yl)oxy)-6-(1H-pyrazol-4-yl)-[1,2,4]triazolo[1,5-a]pyrazin-2-amine]: at least 7.70; for `C[C@@H]1CN(S(C)(=O)=O)CC[C@@H]1Nc1nc2cnc(-c3cn[nH]c3)c(OC3CCOC(C(F)(F)F)C3)n2n1` (stereo partly drawn) [Example 113, N-((3R,4S)-3-Methyl-1-(methylsulfonyl)piperidin-4-yl)-6-(1H-pyrazol-4-yl)-5-((2-(trifluoromethyl)tetrahydro-2H-pyran-4-yl)oxy)-[1,2,4]triazolo[1,5-a]pyrazin-2-amine]: at least 7.70; for `C[C@@H]1CN(S(C)(=O)=O)CC[C@@H]1Nc1nc2cnc(-c3cn[nH]c3)c(OCC3(C(F)(F)F)CCC3)n2n1` [Example 114, N-((3R,4S)-3-Methyl-1-(methylsulfonyl)piperidin-4-yl)-6-(1H-pyrazol-4-yl)-5-((1-(trifluoromethyl)cyclobutyl)methoxy)-[1,2,4]triazolo[1,5-a]pyrazin-2-amine]: at least 7.70.

`C[C@@H]1CN(S(C)(=O)=O)CC[C@@H]1Nc1nc2cnc(-c3cn[nH]c3)c(OCC3CC3)n2n1` [Example 115, 5-(Cyclopropylmethoxy)-N-((3R,4S)-3-methyl-1-(methylsulfonyl)piperidin-4-yl)-6-(1H-pyrazol-4-yl)-[1,2,4]triazolo[1,5-a]pyrazin-2-amine] showed a pIC50 of at least 7.70. The compound `CC(C)CCOc1c(-c2cn[nH]c2)ncc2nc(N[C@H]3CCN(S(C)(=O)=O)C[C@H]3C)nn12` [Example 116, 5-(Isopentyloxy)-N-((3R,4S)-3-methyl-1-(methylsulfonyl)piperidin-4-yl)-6-(1H-pyrazol-4-yl)-[1,2,4]triazolo[1,5-a]pyrazin-2-amine] showed a negative logarithm of the IC50 (pIC50) of at least 7.70. On to `CS(=O)(=O)N1CCC(Nc2nc3cnc(-c4cn[nH]c4)c(OC4CCC4)n3n2)CC1` [Example 117, 5-Cyclobutoxy-N-(1-(methylsulfonyl)piperidin-4-yl)-6-(1H-pyrazol-4-yl)-[1,2,4]triazolo[1,5-a]pyrazin-2-amine], for which the negative-log IC50 (pIC50) is at least 7.70. The value for `CS(=O)(=O)N1CCC(Nc2nc3cnc(-c4cn[nH]c4)c(OC4CC(F)(F)C4)n3n2)CC1` [Example 118, 5-(3,3-Difluorocyclobutoxy)-N-(1-(methylsulfonyl)piperidin-4-yl)-6-(1H-pyrazol-4-yl)-[1,2,4]triazolo[1,5-a]pyrazin-2-amine] was at least 7.70; that for `CS(=O)(=O)N1CCC(Nc2nc3cnc(-c4cn[nH]c4)c(OC4CCOC(C(F)(F)F)C4)n3n2)CC1` (centres unmarked) [Example 119, N-(1-(Methylsulfonyl)piperidin-4-yl)-6-(1H-pyrazol-4-yl)-5-((2-(trifluoromethyl)tetrahydro-2H-pyran-4-yl)oxy)-[1,2,4]triazolo[1,5-a]pyrazin-2-amine] was at least 7.70.
